Laboratory results: PubChem BioAssay (NCI)
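Grown in 96-well plates, cells were treated for 48 hours with each compound at five concentrations. Insufficient inhibition: endpoint recorded as highest concentration tested. TGI denotes the concentration required for complete inhibition of growth.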

Legend:
Assay in all cases: NCI tumour cell line growth inhibition, 48 h
[1] = test system: SK-MEL-28 melanoma
[2] = test system: 786-0 renal
[3] = test system: HOP-62 NSCLC
[4] = test system: SW-620 colon
[5] = test system: U251 CNS
[6] = test system: SF-268 CNS
[7] = test system: LOX IMVI melanoma
[8] = test system: UACC-257 melanoma
[9] = test system: UO-31 renal
[10] = test system: HCT-116 colon
[11] = test system: OVCAR-8 ovarian
[12] = test system: MCF7 breast
[13] = test system: RXF 393 renal
[14] = test system: T-47D breast
[15] = test system: HS 578T breast
[16] = test system: NCI-H23 lung
[17] = test system: KM12 colon
[18] = test system: HOP-92 NSCLC
[19] = test system: SF-295 CNS
[20] = test system: HT29 colon
[21] = test system: SN12C renal
[22] = test system: EKVX NSCLC
[23] = test system: SK-OV-3 ovarian
[24] = test system: RPMI-8226 leukemia
[25] = test system: SNB-19 CNS
[26] = test system: SR leukemia
[27] = test system: SK-MEL-5 melanoma
[28] = test system: MDA-N
[29] = test system: K-562 leukemia
[30] = test system: NCI-H226 lung
[31] = test system: PC-3 prostate
[32] = test system: M14 melanoma
[33] = test system: BT-549 breast
[34] = test system: NCI-H460 lung
[35] = test system: A498 renal
[36] = test system: NCI-H522 lung
[37] = test system: CAKI-1 renal
[38] = test system: SNB-75 CNS
[39] = test system: A549 NSCLC
[40] = test system: OVCAR-4 ovarian
[41] = test system: SF-539 CNS
[42] = test system: MOLT-4 leukemia
[43] = test system: CCRF-CEM leukemia
[44] = test system: MDA-MB-231 breast
[45] = test system: TK-10 renal
[46] = test system: COLO 205 colon
[47] = test system: OVCAR-3 ovarian
[48] = test system: ACHN renal
[49] = test system: NCI/ADR-RES ovarian
[50] = test system: HL-60(TB) leukemia
[51] = test system: OVCAR-5 ovarian
[52] = test system: UACC-62 melanoma
[53] = test system: DU-145 prostate
[54] = test system: HCT-15 colon
[55] = test system: SK-MEL-2 melanoma
[56] = test system: IGROV1 ovarian
[57] = test system: MDA-MB-435
[58] = test system: MALME-3M melanoma
[59] = test system: HCC-2998 colon

Measured: TGI

CCOC(=O)C(C/C=C/CO)N(C)C(=O)OC(C)(C)C (stereo unspecified)
61.4 µM: [36]
not listed: [57] | [58] | [59]
> 100 µM: all other assays above

CC(C(N)=O)N(C)C(=O)c1cnc2ccccc2c1 (stereo unspecified)
not listed: [3] | [6] | [7] | [15] | [16] | [22] | [23]
> 100 µM: all other assays above

O=c1[nH]c2ccc(CC(=S)N3CCCCC3)cc2s1
not listed: [5] | [6] | [9] | [13] | [14] | [15] | [18] | [20] | [21] | [22] | [24] | [27] | [30] | [34] | [35] | [36] | [38] | [39] | [40] | [41] | [43] | [49] | [50] | [56] | [58] | [59]
> 100 µM: all other assays above

CC(C)c1ccc(/C=C2\CSCC3=C2N=C2SCC(=O)N2C3c2ccc(C(C)C)cc2)cc1 (stereo unspecified)
not listed: [13] | [25] | [33] | [35] | [36]
> 100 µM: all other assays above

Cc1cc(=O)oc2c(CNC(CC(C)C)C(=O)O)c(O)ccc12 (stereo unspecified)
not listed: [33] | [35] | [43]
> 100 µM: all other assays above

O=C1c2cc([N+](=O)[O-])sc2C(=O)c2c([N+](=O)[O-])csc21
0.311 µM: [57]
3.18 µM: [38]
1.17 µM: [41]
1.68 µM: [36]
3.02 µM: [25]
3.56 µM: [39]
1.78 µM: [10]
0.112 µM: [50]
1.19 µM: [52]
2.6 µM: [17]
4.16 µM: [49]
0.399 µM: [29]
3.07 µM: [53]
3.5 µM: [34]
0.753 µM: [58]
0.389 µM: [43]
3.04 µM: [11]
3 µM: [45]
1.07 µM: [4]
0.269 µM: [7]
2.05 µM: [16]
2.06 µM: [40]
4.09 µM: [14]
4.41 µM: [54]
0.313 µM: [27]
1.01 µM: [5]
0.934 µM: [24]
0.779 µM: [48]
2.3 µM: [59]
0.173 µM: [26]
1.09 µM: [21]
1.92 µM: [1]
2.95 µM: [51]
3.4 µM: [22]
2.32 µM: [19]
3.09 µM: [23] | [31]
1.31 µM: [8]
1.76 µM: [13]
0.484 µM: [42]
3.34 µM: [35]
1.4 µM: [56]
2.19 µM: [44]
3.26 µM: [46]
1.93 µM: [33]
3.37 µM: [9]
3.77 µM: [55]
1.26 µM: [32]
3.8 µM: [30]
1.66 µM: [2]
2.48 µM: [37]
0.82 µM: [18]
0.994 µM: [6]
0.363 µM: [28]

FC(F)(F)c1ccc2nc(Sc3ccc4ccccc4c3)cnc2c1
95 µM: [12]
66.3 µM: [55]
92.6 µM: [13]
not listed: [24] | [26] | [31] | [47]
> 100 µM: all other assays above

CCCCCCCCCCCCO[P+](=O)OCCCCCCCCCCCC
72.2 µM: [17]
62.2 µM: [8]
99.2 µM: [45]
not listed: [7] | [26] | [37]
> 100 µM: all other assays above
